We go through twelve compounds from patent publication US20260327204A1, “DEGRADERS OF CYCLIN-DEPENDENT KINASE 12/13, COMPOSITIONS, AND USES THEREOF” (ZHEJIANG UNIVERSITY, priority 2023, published 2026).

One assay concerns the target CDK13 (Homo sapiens, UniProt Q14004). Description: Western blot degradation of CDK13 (Example 2). It counts as cell-based. More on the design: degradation of CDK12/13 protein in leukemia cells KASUMI-1, MV4-11, and Jurkat; endogenous in cells. The settings on record: DC50 classes, cell line not given; for DC50: read-out: CDK13 degradation Activity. Here is the method:
(§1) Western blot was used to determine the degradation of CDK12/13 protein in leukemia cells KASUMI-1, MV4-11, and Jurkat. The two compounds with the best degradation effects were further validated for their ability to degrade CDK12/13 protein in breast cancer cells MDA-MB-231 using a concentration gradient.
(§2) • Cell lines: KASUMI-1, MV4-11, Jurkat, or MDA-MB-231 • Culture medium: DMEM/RIPM-1640+10% Hyclone serum • Compound dissolution method: Compounds were dissolved in DMSO to prepare a 50 mM stock solution, and then diluted to the corresponding concentrations.
(§3) (1) In vitro cell culture: The selected cells were cultured in a 37 °C constant temperature incubator with 5% CO2. Once the cell density reached 70-90%, they were passaged for subsequent experiments.
(§4) (2) Cell seeding: Cells were digested, and the cell suspension was transferred to a 1.5 mL Eppendorf tube. After centrifugation at 1,000 rpm for 5 min, the cells were resuspended in 2 mL of culture medium and counted. The cell suspension was seeded in a 24-well plate at a density of 200,000 cells per well and allowed to adhere for 8-12 h.
(§5) (3) Compound treatment: The 50 mM compound stock solution was diluted with cell culture medium to a final concentration of 0.01 μM-3 μM. Cells were incubated in a 37 °C incubator with 5% CO2 for 3 h-48 h. The DMSO group served as the negative control.
(§6) At the end of the treatment time, the cells were collected and washed once with PBS. An appropriate volume of 4% SDS was added to lyse the cells, and the mixture was sonicated until no longer viscous. After centrifugation at 12,000 rpm at room temperature for 30 min, the supernatant was transferred to a new EP tube for protein quantification.
(§7) The exposure results were quantitatively analyzed using Image J software. First, the grayscale values of the bands were calculated using Image J. Then, the grayscale value of the target protein was divided by the grayscale value of the internal reference protein for normalization. The calculation formula is: […]
(§8) Where A is the grayscale value and D is the degradation rate.
(§9) In the figures, CDK12 and CDK13 are the target proteins under study, and β-Actin and GAPDH are the internal reference proteins. Internal reference proteins are used to indicate the total protein amount in each experimental group for quantitative analysis.

A further assay concerns the target CDK12 (Homo sapiens, UniProt Q9NYV4). The assay is described as follows: Western blot degradation of CDK12 (Example 2). Also noted: degradation of CDK12/13 protein in leukemia cells KASUMI-1, MV4-11, and Jurkat; endogenous in cells. The note with it: DC50 classes, cell line not given; for DC50: read-out: CDK12 degradation Activity. It counts as cell-based. The method, then:
as §1, §2, §3, §4, §5, §6, §7, §8, §9

CDK13, sequence (Q14004 whole entry): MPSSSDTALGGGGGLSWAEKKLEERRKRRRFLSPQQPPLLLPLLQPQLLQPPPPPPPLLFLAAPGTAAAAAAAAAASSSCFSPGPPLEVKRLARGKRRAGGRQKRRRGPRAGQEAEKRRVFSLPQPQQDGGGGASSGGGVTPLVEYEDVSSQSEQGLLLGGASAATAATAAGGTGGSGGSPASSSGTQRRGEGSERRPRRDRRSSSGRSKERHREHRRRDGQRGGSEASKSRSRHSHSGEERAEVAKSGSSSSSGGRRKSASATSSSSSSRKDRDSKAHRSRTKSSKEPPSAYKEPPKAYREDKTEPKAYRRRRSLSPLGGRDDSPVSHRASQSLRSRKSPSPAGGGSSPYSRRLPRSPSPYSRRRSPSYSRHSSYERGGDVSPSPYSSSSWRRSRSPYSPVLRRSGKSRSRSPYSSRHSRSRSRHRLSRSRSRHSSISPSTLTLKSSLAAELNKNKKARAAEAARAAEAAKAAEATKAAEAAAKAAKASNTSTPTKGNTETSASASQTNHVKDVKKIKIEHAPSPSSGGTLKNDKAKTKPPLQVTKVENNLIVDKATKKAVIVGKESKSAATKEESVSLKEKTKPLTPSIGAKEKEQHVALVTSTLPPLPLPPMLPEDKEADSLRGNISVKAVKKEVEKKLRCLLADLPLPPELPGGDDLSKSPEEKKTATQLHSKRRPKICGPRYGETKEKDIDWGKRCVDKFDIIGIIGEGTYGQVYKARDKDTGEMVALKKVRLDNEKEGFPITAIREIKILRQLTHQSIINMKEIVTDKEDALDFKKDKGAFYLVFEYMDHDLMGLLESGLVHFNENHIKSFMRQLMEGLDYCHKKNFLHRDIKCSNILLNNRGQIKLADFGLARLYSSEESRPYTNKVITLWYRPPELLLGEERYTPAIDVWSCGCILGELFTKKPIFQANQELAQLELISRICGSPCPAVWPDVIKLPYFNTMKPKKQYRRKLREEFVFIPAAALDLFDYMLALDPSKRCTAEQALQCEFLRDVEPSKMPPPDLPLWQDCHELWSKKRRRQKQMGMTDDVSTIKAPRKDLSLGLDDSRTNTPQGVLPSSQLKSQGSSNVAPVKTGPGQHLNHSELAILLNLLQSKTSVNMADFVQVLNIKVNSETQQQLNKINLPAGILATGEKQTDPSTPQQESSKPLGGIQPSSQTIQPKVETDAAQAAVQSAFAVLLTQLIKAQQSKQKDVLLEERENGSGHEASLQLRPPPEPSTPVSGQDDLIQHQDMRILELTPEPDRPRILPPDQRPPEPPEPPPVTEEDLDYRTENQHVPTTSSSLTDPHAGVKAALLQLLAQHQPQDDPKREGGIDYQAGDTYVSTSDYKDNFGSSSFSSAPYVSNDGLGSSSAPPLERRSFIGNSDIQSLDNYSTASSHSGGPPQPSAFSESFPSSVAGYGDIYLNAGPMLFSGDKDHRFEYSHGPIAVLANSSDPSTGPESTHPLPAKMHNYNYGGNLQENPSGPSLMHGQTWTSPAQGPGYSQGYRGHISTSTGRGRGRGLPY
CDK13, sequence (O75909 whole entry partner): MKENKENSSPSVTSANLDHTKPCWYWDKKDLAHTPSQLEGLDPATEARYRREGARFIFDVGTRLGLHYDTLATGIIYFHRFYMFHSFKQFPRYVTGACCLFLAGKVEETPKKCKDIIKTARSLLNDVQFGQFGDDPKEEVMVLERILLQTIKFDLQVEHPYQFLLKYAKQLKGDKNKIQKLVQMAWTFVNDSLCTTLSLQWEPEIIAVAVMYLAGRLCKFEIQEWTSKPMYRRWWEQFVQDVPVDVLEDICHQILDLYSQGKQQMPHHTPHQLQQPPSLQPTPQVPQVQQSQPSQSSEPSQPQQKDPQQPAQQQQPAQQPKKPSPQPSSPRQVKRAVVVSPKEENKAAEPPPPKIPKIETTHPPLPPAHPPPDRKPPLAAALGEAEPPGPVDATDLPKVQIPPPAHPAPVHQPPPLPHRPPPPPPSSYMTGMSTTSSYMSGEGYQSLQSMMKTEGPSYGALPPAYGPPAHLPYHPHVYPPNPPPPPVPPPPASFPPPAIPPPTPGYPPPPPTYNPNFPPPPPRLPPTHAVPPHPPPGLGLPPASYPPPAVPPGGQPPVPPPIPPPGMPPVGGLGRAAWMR
CDK12, sequence (Q9NYV4 whole entry): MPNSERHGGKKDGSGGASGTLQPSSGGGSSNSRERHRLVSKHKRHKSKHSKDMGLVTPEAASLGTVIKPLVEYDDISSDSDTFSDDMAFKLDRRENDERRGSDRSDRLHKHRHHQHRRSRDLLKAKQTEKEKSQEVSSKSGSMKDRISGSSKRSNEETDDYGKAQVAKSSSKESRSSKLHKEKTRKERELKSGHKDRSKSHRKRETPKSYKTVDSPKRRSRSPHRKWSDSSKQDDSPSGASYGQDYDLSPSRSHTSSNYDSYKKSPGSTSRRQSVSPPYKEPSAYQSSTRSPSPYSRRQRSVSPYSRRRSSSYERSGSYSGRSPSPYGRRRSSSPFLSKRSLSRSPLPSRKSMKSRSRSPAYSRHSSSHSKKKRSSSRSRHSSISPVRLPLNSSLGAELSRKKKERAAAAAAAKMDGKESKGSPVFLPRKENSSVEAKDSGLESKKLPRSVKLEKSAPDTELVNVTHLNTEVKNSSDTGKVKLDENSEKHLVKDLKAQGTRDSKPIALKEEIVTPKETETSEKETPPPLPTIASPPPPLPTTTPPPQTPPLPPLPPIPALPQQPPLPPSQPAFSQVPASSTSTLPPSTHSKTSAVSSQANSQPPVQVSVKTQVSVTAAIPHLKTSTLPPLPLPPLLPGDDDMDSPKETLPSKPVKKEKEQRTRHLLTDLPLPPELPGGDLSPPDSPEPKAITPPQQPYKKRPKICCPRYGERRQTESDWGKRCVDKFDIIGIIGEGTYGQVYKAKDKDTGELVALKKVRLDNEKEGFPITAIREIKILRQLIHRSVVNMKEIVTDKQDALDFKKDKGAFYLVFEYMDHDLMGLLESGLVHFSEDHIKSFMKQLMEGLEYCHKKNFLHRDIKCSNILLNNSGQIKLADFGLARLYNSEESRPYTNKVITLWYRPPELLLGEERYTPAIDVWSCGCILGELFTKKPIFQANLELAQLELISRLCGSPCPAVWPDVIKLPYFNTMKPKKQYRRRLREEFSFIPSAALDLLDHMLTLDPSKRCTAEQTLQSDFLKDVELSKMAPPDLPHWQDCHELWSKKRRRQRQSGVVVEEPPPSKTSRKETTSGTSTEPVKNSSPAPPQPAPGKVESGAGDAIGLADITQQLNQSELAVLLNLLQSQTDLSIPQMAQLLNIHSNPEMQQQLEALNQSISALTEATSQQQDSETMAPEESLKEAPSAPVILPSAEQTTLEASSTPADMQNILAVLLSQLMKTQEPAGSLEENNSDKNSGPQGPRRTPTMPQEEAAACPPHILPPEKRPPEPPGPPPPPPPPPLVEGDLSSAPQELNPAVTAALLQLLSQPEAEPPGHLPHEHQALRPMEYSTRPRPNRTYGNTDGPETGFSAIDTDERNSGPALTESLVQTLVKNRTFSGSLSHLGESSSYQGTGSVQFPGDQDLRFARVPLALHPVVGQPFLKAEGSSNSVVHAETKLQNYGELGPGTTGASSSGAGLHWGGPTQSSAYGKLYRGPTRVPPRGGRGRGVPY
CDK12, sequence (O75909 whole entry partner): as the sequence (O75909 whole entry partner) above

`Cc1ncsc1-c1ccc([C@H](C)NC(=O)[C@@H]2C[C@@H](O)CN2C(=O)[C@@H](NC(=O)CC#CC2CCN(c3ccc(N(C(=O)NCc4ccccc4)[C@H]4CC[C@H](Nc5ccc(C#N)cn5)CC4)cc3)CC2)C(C)(C)C)cc1` [Formula 20]: the DC50 at CDK13 and on CDK12 was 3000 to 10000 nM each time.

On to `Cc1ncsc1-c1ccc([C@H](C)NC(=O)[C@@H]2C[C@@H](O)CN2C(=O)[C@@H](NC(=O)CN2CCN(c3ccc(-c4ccc(N(C(=O)NCc5ccccc5)[C@H]5CC[C@H](Nc6ccc(C#N)cn6)CC5)cc4)cn3)CC2)C(C)(C)C)cc1` [Formula 75], for which the DC50 at CDK13 is under 100 nM.

`Cc1ncsc1-c1ccc([C@H](C)NC(=O)[C@@H]2C[C@@H](O)CN2C(=O)[C@@H](NC(=O)CN2CCN(c3ccc(-c4ccc(N(C(=O)NCc5ccccc5)[C@H]5CC[C@H](Nc6ccc(C#N)cn6)CC5)cc4)cn3)CC2)C(C)(C)C)cc1` [Formula 76]: at CDK13, the DC50 was under 100 nM.

As for `Cc1ncsc1-c1ccc([C@H](C)NC(=O)[C@@H]2C[C@@H](O)CN2C(=O)[C@@H](NC(=O)CN2CCN(c3ccc(-c4ccc(N(C(=O)NCc5ccccc5)[C@H]5CC[C@H](Nc6ccc(C#N)cn6)CC5)cc4)cn3)CC2)C(C)(C)C)cc1` [Formula 72], the DC50 at CDK13 is under 100 nM.

With `Cc1ncsc1-c1ccc([C@H](C)NC(=O)[C@@H]2C[C@@H](O)CN2C(=O)[C@@H](NC(=O)C2CC3(CC(Nc4ccc(N(C(=O)NCc5ccccc5)[C@H]5CC[C@H](Nc6ccc(C#N)cn6)CC5)cc4)C3)C2)C(C)(C)C)cc1` (some centres unmarked) [Formula 27], on CDK13, the “CDK13 degradation Activity” value was “−”. For the same compound, the DC50 on CDK12 was in the range of 3000 to 10000 nM.

Regarding `Cc1ncsc1-c1ccc([C@H](C)NC(=O)[C@@H]2C[C@@H](O)CN2C(=O)[C@@H](NC(=O)CC#CC2CN(c3ccc(-c4ccc(N(C(=O)NCc5ccccc5)[C@H]5CC[C@H](Nc6ccc(C#N)cn6)CC5)cc4)cn3)C2)C(C)(C)C)cc1` [Formula 23], the “CDK13 degradation Activity” value at CDK13 is given as “−”. In addition, the DC50 at CDK12 lay in the range of 3000 to 10000 nM.

On to `Cc1ncsc1-c1ccc([C@H](C)NC(=O)[C@@H]2C[C@@H](O)CN2C(=O)[C@@H](NC(=O)N2CC3(CCN(c4ccc(N(C(=O)NCc5ccccc5)[C@H]5CC[C@H](Nc6ccc(C#N)cn6)CC5)cc4)CC3)C2)C(C)(C)C)cc1` [Formula 55], for which, on CDK13, the “CDK13 degradation Activity” value is recorded as “−”. For the same compound, the “CDK12 degradation Activity” value on CDK12 is recorded as “−”.

In the case of `Cc1ncsc1-c1ccc([C@H](C)NC(=O)[C@@H]2C[C@@H](O)CN2C(=O)[C@@H](NC(=O)CN2CCN(c3ncc(-c4ccc(N(C(=O)NCc5ccccc5)[C@H]5CC[C@H](Nc6ccc(C#N)cn6)CC5)cc4)cn3)CC2)C(C)(C)C)cc1` [Formula 86], the DC50 at CDK13 and on CDK12 was under 100 nM in each case.

For `Cc1ncsc1-c1ccc([C@H](C)NC(=O)[C@@H]2C[C@@H](O)CN2C(=O)[C@@H](NC(=O)CN2CCN(c3ccc(-c4ccc(N(C(=O)NCc5ccccc5)[C@H]5CC[C@H](Nc6ccc(C#N)cn6)CC5)cc4)cn3)CC2)C(C)(C)C)cc1` [Formula 74], the DC50 on CDK13 is under 100 nM.

With `Cc1ncsc1-c1ccc([C@H](C)NC(=O)[C@@H]2C[C@@H](O)CN2C(=O)[C@@H](NC(=O)CN2CCN(c3ccc(-c4ccc(N(C(=O)NCc5ccccc5)[C@H]5CC[C@H](Nc6ccc(C#N)cn6)CC5)cc4)cn3)CC2)C(C)(C)C)cc1` [Formula 77], the DC50 at CDK13 was under 100 nM.

As to `Cc1ncsc1-c1ccc([C@H](C)NC(=O)[C@@H]2C[C@@H](O)CN2C(=O)[C@@H](NC(=O)CN2CCN(c3ccc(-c4ccc(N(C(=O)NCc5ccccc5)[C@H]5CC[C@H](Nc6ccc(C#N)cn6)CC5)cc4)cn3)CC2)C(C)(C)C)cc1` [Formula 71], the DC50 at CDK13 was under 100 nM.

Consider `Cc1ncsc1-c1ccc([C@H](C)NC(=O)[C@@H]2C[C@@H](O)CN2C(=O)[C@@H](NC(=O)CN2CCN(c3ccc(-c4ccc(N(C(=O)NCc5ccccc5)[C@H]5CC[C@H](Nc6ccc(C#N)cn6)CC5)cc4)cn3)CC2)C(C)(C)C)cc1` [Formula 78], for which the DC50 on CDK13 is under 100 nM.
